Test [1] deals with T1, SOS-mediated nucleotide exchange on Ras (Homo sapiens, UniProt Q07889).
T1 sequence (Q07889 1-1333): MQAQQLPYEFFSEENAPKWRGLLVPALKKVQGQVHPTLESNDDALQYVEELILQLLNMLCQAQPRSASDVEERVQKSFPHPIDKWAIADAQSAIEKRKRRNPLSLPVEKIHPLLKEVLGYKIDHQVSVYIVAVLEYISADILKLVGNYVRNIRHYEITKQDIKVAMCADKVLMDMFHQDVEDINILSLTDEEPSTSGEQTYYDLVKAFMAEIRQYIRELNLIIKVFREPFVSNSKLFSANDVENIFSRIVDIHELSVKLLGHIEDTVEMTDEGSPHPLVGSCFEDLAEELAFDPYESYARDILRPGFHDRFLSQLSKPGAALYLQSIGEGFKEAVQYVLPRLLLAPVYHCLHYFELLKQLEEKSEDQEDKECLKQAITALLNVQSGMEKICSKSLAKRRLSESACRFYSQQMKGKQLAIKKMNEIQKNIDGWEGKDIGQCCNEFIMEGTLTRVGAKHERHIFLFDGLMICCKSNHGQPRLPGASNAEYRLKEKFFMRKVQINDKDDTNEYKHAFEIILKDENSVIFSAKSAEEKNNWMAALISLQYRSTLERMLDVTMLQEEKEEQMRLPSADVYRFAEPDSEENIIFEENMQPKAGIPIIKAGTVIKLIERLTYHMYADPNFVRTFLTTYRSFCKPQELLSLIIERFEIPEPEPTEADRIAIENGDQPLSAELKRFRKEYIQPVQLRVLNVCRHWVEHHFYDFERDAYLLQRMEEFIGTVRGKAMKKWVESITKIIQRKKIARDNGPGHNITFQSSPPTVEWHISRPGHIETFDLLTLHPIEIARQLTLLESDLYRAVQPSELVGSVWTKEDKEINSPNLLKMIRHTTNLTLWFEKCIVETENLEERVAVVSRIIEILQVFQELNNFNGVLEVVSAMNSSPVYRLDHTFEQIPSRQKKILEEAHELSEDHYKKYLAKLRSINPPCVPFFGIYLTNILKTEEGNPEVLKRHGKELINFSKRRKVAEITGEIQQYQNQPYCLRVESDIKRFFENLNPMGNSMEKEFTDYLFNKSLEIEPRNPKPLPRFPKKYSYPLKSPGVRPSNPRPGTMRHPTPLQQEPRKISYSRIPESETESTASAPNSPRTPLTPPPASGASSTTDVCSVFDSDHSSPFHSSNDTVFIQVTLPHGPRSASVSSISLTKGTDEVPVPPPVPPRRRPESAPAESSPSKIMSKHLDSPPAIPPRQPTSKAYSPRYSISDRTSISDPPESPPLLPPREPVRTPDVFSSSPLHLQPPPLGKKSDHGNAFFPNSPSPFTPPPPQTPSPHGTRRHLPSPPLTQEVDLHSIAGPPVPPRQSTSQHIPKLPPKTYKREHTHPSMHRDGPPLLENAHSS
Briefly: SOS-mediated nucleotide exchange on Ras (BODIPY-GDP fluorescence). The test is classed as biochemical. As to conditions: Ras loaded with BODIPY-GDP, GTP and SOS added; EC50 from derived exchange rates. In short, it runs like this:
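Compound, then GTP and SOS, were added to buffered Ras preloaded with BODIPY-GDP, and the fluorescence change from labeled GDP being exchanged for GTP was followed over time. Rates came from single-exponential fits, and EC50 from a four-parameter fit of mean rate against compound concentration.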

Test [2] concerns the target T2, Son of Sevenless (SOS) (Homo sapiens, UniProt Q07889).
T2 sequence (Q07889 564-1049 limits assumed): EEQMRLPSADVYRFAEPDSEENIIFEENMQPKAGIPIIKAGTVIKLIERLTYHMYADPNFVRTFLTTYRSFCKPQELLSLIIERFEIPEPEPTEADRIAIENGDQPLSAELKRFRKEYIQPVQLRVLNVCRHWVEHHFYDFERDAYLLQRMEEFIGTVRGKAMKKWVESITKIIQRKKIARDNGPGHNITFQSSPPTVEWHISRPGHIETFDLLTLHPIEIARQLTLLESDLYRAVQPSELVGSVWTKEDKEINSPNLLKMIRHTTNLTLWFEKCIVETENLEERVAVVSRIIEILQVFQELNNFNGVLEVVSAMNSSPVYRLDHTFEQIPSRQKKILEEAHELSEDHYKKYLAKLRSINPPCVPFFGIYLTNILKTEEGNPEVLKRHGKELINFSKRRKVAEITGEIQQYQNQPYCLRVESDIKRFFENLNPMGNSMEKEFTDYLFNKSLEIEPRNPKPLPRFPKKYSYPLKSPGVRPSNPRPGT
Description: Binding to SOS, fluorescence polarization anisotropy (FPA) displacement of FITC-conjugated probe. To be noted: binding affinity calculated from IC50 of FITC-probe displacement, read-out: Binding affinities (binding affinity to SOS). The method, then:
Compounds of the present invention were tested for their ability to the Ras guanine exchange factor (GEF) Son of Sevenless (SOS). Binding to SOS was measured using a Fluorescence polarization anisotropy (FPA) assay that assesses the ability of a test compound to displace a fluorescent FITC-conjugated compound. Briefly, the labeled probe compound is incubated with SOS in buffer. Changes in anisotropy indicative of displacement of the labeled probe for a test compound are assessed over a dose range of test compound. Data was analyzed by plotting fluorescence anisotropy values as a function of compound concentration. IC50 values were determined using a four-parameter dose-response (variable slope) and binding affinities were calculated from this IC50 value. This assay is performed in a method analogous to the assay disclosed in: Burns, M. C.; Sun, Q.; Daniels, R. N.; Camper, D. V.; Kennedy, J. P.; Phan, J.; Olejniczak, E. O.; Lee, T.; Waterson, A. G.; Rossanese, O. W.; Fesik, S. W. “Approach for targeting Ras with small molecules that activate SOS-mediated nucleotide exchange” Proc. Natl. Acad. Sci. 2014; 11(9): 3401-3406. PMCID: PMC3948241.

In general, EC50 refers to the concentration needed to bring the measured effect to its halfway point. The low end stands for higher potency in that assay, the high end for lower potency in that assay.

For `C[C@@H](Nc1nc(NCc2cccc(Cl)c2F)nc2c(CCN)cccc12)C(C)(C)C` [Example 85, (R)-8-(2-aminoethyl)-N^2-(3-chloro-2-fluorobenzyl)-N^4-(3,3-dimethylbutan-2-yl)quinazoline-2,4-diamine], in test [1], the concentration giving a half-maximal response (EC50) lay within 5 to 30 µM. Moreover, the Ki in test [2] was 1 to 5 µM.

On to `C[C@@H](Nc1nc(NCC2CCCCC2)nc2c(CN)cccc12)C(C)(C)C` [Example 86, (R)-8-(aminomethyl)-N^2-(cyclohexylmethyl)-N^4-(3,3-dimethylbutan-2-yl)quinazoline-2,4-diamine], for which the EC50 in test [1] was 5 to 30 µM. The Ki in test [2] was above 5 µM.

Regarding `C[C@@H](Nc1nc(NCc2cccc(Cl)c2F)nc2c(CN)cccc12)C(C)(C)C` [Example 87, (R)-8-(aminomethyl)-N^2-(3-chloro-2-fluorobenzyl)-N^4-(3,3-dimethylbutan-2-yl)quinazoline-2,4-diamine], the EC50 in test [1] lay within 5 to 30 µM. Moreover, in test [2], the Ki is above 5 µM.

In test [1], `Cc1cc(F)cc(Nc2nc(N[C@H](C)c3cccs3)c3cccc(C4=CCNCC4)c3n2)c1` [Example 89, (R)—N^2-(3-fluoro-5-methylphenyl)-8-(1,2,3,6-tetrahydropyridin-4-yl)-N^4-(1-(thiophen-2-yl)ethyl)quinazoline-2,4-diamine] gave an EC50 of 1 to 5 µM. Moreover, the Ki in test [2] is 1 to 5 µM.

Regarding `C[C@@H](Nc1nc(NCC2CCCCC2)nc2c(C3=CCNCC3)cccc12)c1cccs1` [Example 90, (R)—N^2-(cyclohexylmethyl)-8-(1,2,3,6-tetrahydropyridin-4-yl)-N^4-(1-(thiophen-2-yl)ethyl)quinazoline-2,4-diamine], the EC50 in test [1] is 1 to 5 µM. Besides, the Ki in test [2] was 1 to 5 µM.

Turning to `C[C@@H](Nc1nc(Nc2ccc(F)c(Cl)c2)nc2c(CCN)cccc12)c1cccs1` [Example 91, (R)-8-(2-aminoethyl)-N^2-(3-chloro-4-fluorophenyl)-N^4-(1-(thiophen-2-yl)ethyl)quinazoline-2,4-diamine], in test [1], the EC50 lay within 5 to 30 µM. Moreover, the Ki in test [2] was 1 to 5 µM.

For `Cc1cc(F)cc(Nc2nc(N[C@H](C)c3cccs3)c3cccc(CCN)c3n2)c1` [Example 92, (R)-8-(2-aminoethyl)-N^2-(3-fluoro-5-methylphenyl)-N^4-(1-(thiophen-2-yl)ethyl)quinazoline-2,4-diamine], the concentration giving a half-maximal response (EC50) in test [1] lay within 5 to 30 µM. The Ki in test [2] was above 5 µM.

`C[C@@H](Nc1nc(NCC2CCCCC2)nc2c(CCN)cccc12)c1cccs1` [Example 93, (R)-8-(2-aminoethyl)-N^2-(cyclohexylmethyl)-N^4-(1-(thiophen-2-yl)ethyl)quinazoline-2,4-diamine] registered an EC50 in test [1] of 5 to 30 µM. Besides, the Ki in test [2] is below 1 µM.

The compound `C[C@@H](Nc1nc(NCc2cccc(Cl)c2F)nc2c(CCN)cccc12)c1cccs1` [Example 94, (R)-8-(2-aminoethyl)-N^2-(3-chloro-2-fluorobenzyl)-N^4-(1-(thiophen-2-yl)ethyl)quinazoline-2,4-diamine] returned a 50% effective concentration (EC50) in test [1] of 1 to 5 µM. The Ki in test [2] was 1 to 5 µM.

Compound `Cc1cc(F)cc(Nc2nc(N[C@H](C)c3cccs3)c3cccc(CN)c3n2)c1` [Example 95, (R)-8-(aminomethyl)-N^2-(3-fluoro-5-methylphenyl)-N^4-(1-(thiophen-2-yl)ethyl)quinazoline-2,4-diamine] displayed a half-maximal effective concentration (EC50) in test [1] of 5 to 30 µM. Also, in test [2], the Ki is above 5 µM.

The compound `C[C@@H](Nc1nc(NCc2cccc(Cl)c2F)nc2c(CN)cccc12)c1cccs1` [Example 97, (R)-8-(aminomethyl)-N^2-(3-chloro-2-fluorobenzyl)-N^4-(1-(thiophen-2-yl)ethyl)quinazoline-2,4-diamine] showed an EC50 in test [1] of 5 to 30 µM. Also, the Ki in test [2] is above 5 µM.

In test [1], `C[C@@H](Nc1nc(NCC2CCCCCC2)nc2c(C3=CCNCC3)cccc12)C1CC1` [Example 103, (R)—N^2-(cycloheptylmethyl)-N^4-(1-cyclopropylethyl)-8-(1,2,3,6-tetrahydropyridin-4-yl)quinazoline-2,4-diamine] yielded a concentration giving a half-maximal response (EC50) of 5 to 30 µM. Also, the Ki in test [2] is above 5 µM.

Take `C[C@@H](Nc1nc(NCC2CCCC2)nc2c(C3=CCNCC3)cccc12)C1CC1` [Example 105, (R)—N^2-(cyclopentylmethyl)-N^4-(1-cyclopropylethyl)-8-(1,2,3,6-tetrahydropyridin-4-yl)quinazoline-2,4-diamine]: the EC50 in test [1] was 1 to 5 µM. Besides, in test [2], the Ki was 1 to 5 µM.

`C[C@@H](Nc1nc(NCC2CCC2)nc2c(C3=CCNCC3)cccc12)C1CC1` [Example 106, (R)—N^2-(cyclobutylmethyl)-N^4-(1-cyclopropylethyl)-8-(1,2,3,6-tetrahydropyridin-4-yl)quinazoline-2,4-diamine] came in with a 50% effective concentration (EC50) in test [1] below 1 µM. Further, the Ki in test [2] was 1 to 5 µM.

The compound `Cc1cc(F)cc(Nc2nc(N[C@H](C)C3CC3)c3cccc(C4=CCNCC4)c3n2)c1` [Example 107, (R)—N^4-(1-cyclopropylethyl)-N^2-(3-fluoro-5-methylphenyl)-8-(1,2,3,6-tetrahydropyridin-4-yl)quinazoline-2,4-diamine] yielded a 50% effective concentration (EC50) in test [1] of 1 to 5 µM. In addition, in test [2], the Ki is 1 to 5 µM.

Consider `Cc1cc(F)cc(Nc2nc(NC(C3CC3)C3CC3)c3cccc(C4=CCNCC4)c3n2)c1` [Example 108, N^4-(dicyclopropylmethyl)-N^2-(3-fluoro-5-methylphenyl)-8-(1,2,3,6-tetrahydropyridin-4-yl)quinazoline-2,4-diamine], for which the EC50 in test [1] was in the range of 1 to 5 µM. The Ki in test [2] is 1 to 5 µM.

In test [1], `C[C@@H](Nc1nc(Nc2ccc(F)c(Cl)c2)nc2c(NCC3CNC3)cccc12)C1CC1` [Example 111, (R)—N^8-(azetidin-3-ylmethyl)-N^2-(3-chloro-4-fluorophenyl)-N^4-(1-cyclopropylethyl)quinazoline-2,4,8-triamine] registered an EC50 of 5 to 30 µM. The Ki in test [2] was above 5 µM.

In test [1], `C[C@@H](Nc1nc(Nc2ccc(F)c(Cl)c2)nc2c(NC3CNC3)cccc12)C1CC1` [Example 112, (R)—N^8-(azetidin-3-yl)-N^2-(3-chloro-4-fluorophenyl)-N-(1-cyclopropylethyl)quinazoline-2,4,8-triamine] came in with a concentration giving a half-maximal response (EC50) of 1 to 5 µM. For the same compound, the Ki in test [2] was above 5 µM.

The values above are taken from patent US11318137B2, “Quinazoline compounds as modulators of Ras signaling” (VANDERBILT UNIVERSITY, priority 2017, dated 2022).
